Laboratory results published in patent US5703056A, “Non-invasive imaging of gene transfer” (priority 1995, dated 1997).
Read-outs that look alike come from different tables or passages of the source.

Tests used:
[1] = cited from earlier work
RG2TK+ and RG2 tumors [2] = experiment: Quantitative autoradiography of 2-[14C]-FIAU in i.c. RG2TK+ and RG2 tumors; type: in vivo, rat; details: for Sensitivity* Δ(substrate % dose/g)/Δ(HSV1TK mRNA/S28 RNA IOD): autoradiographic data
Experimental: (§1) Two rats were prepared with i.c. RG2TK+ and RG2 tumors as described above. […] The brain was rapidly extracted and frozen in preparation for cryosectioning and quantitative autoradiography (QAR). [Blasberg, Seminars in Neurology] […] To convert the x-ray images to tissue radioactivity (nCi/g), the optical density of the standards was measured by computerized image analysis. A standard curve that relates mean optical density and tissue radioactivity was generated for each film. […]

[3] = as above; type: in vivo, rat; details: rat, iv, 50 uCi
Experimental: as §1

[4] = Calculated permeability surface area product (PS) of the cerebral capillaries; parameters: unit not given here
Source text: Passage of the nucleosides across the blood brain barrier (BBB) is an important factor to consider in the design of radiolabelled 2'-fluoro-nucleoside analogues for imaging HSV1-TK expression in the brain. […] It is known that brain capillary permeability for many compounds is related to their octanol/water partition coefficient (P) and molecular weight. [Levin, V. N. J. Med. Chem., 23: 682-4, 1980] Several authors have described a relationship between the brain capillary permeability and log P or log P·Dm, where Dm is a measure of diffusibility. […] [Dischino, D. D., Welch, M. J., Kilbourn, M. N., and Raichle, M. E., J. Nucl. Med., 24: 1030-8, 1983] […] Fenstermacher, J. D. Drug transfer across the blood brain barrier. In: Topics in Pharmaceutical Sciences. Ed.: Breimer, D. D., and Speiser, P. Amsterdam: Elsevier, pp. 143-54, 1983; Fenstermacher, J. D., and Rapoport, S. I. In: Handbook of Physiology. The Cardiovascular System. Microcirculation. Bethesda, Md.: Am. Physiol. Soc., sect. 2, Vol. IV, pt. 2, chapt. 21, p. 969-1000, 1984; Fenstermacher, J. D. In: Implications of Blood-Brain Barrier and Its Manipulation. Basic Science Aspects. Ed. by Neuwelt, E., New York: Plenum, Vol. 1, Chapt. 6, pp. 132-55, 1988]

RG2TK+ and RG2 tumors [5] = experiment: Tissue sampling of FIAU- and IUdR-derived radioactivity in i.c. and s.c. RG2TK+ and RG2 tumors; type: in vivo, rat; details: 24 h, percent dose per gram
Experimental: Animal preparation and tumor inoculation Two male Fisher 344 rats weighing 250±20 g were anesthetized with a gas mixture consisting of 2% Isoflurane, 70% nitrous oxide and 30% oxygen. A 2% lidocaine gel was applied to the ears and the head was fixed with a stereotaxic device. After midline scalp incision, a burr hole was made through the skull 1 mm posterior and 3 mm lateral to the bregma. The tumor cell suspensions were aspirated into a 50 μl gas tight Hamilton syringe (Ga. 25) and attached to a stereotaxic device. The syringe needle was then inserted 6 mm deep into the caudate nucleus and the cell suspension (10^5 cells in 10 μl) was slowly injected over 2 minutes. RG2TK+ cells were injected into the left hemisphere, and RG2 cells were injected into the right hemisphere. Bone wax was applied to cover the skull defect and the scalp was closed with 4.0 silk suture. Subcutaneous inoculations (10^6 cells in 50 μl) were also performed (RG2TK+ cells into the left flank and RG2 cells into the right flank). After the procedure, the animals were marked and placed in standard cages with water and Rodent LabChow #5001 (Purina Mills, Inc.) ad libitum. Comparison of different "marker substrates" for identifying HSV1-TK expression in animals After 10 days of tumor growth, both animals received i.v. injections of [^123 I]-IUdR (400 uCi) and [^14 C]-FIAU (10 uCi). Radioactivity was allowed to clear from the body over 24 hours to reduce tissue background activity, predominantly due to radiolabelled iodide, the major metabolite of [^123 I]-IUdR. [Tjuvajev, J. G., Muraki, A., Ginos, J., Berk, J., Koutcher, J., Ballon, D., Beattie, B., Finn, R., and Biasberg, R., J. Nucl. Med., 34: 1152-62, 1993; Tjuvajev, J. G., Macapinlac, H. A., Daghighian, F., Scott, A. M., ginos, J. Z., Finn, R. D., Kothari, P., Desai, R., Zhang, Z., Beattie, B., Graham, M., Larson, S., and Blasberg, R. G., J. Nucl. Med., 35: 1407-17, 1994] The rats were killed at 24 hours under anesthesia; samples of tumor and adjacent tissue were disected and weighed, blood and plasma were obtained, and radioactivity was measured. Decay corrected ^123 I-radioactivity was assayed in a Packard AutoGamma 5550 Spectrometer; samples were stored in a refrigerator for 1 week to allow for ^123 I decay (>12 half lives) and ^14 C-radioactivity was measured in a Packard B1600 TriCarb beta spectrometer using external standard quench correction. Sample radioactivity was expressed as a percent of administered dose per gram of tissue of per unit volume of fluid.

HSV1-TK = HSV1-TK (Human alphaherpesvirus 1 strain 17, UniProt P0DTH5); experiment: Accumulation of radiolabelled marker substrates in RG2TK+ transduced and RG2 wild-type cells, normalized to TdR; type: cell-based, herpes simplex virus
Experimental: Source of radiolabelled "marker substrates". […] No carrier-added 5-[^123 I]-deoxyuridine (IUdR) was prepared by reacting 2-deoxyuridine (UdR) with carrier-free ^123 I-labelled sodium iodide in an iodogen coated reaction vial.
Comparison of "marker substrates" for identifying HSV1-tk gene expression in tissue culture. […] Each of these substrates were developed for or used as an anti-viral agent; they are phosphorylated by HSV1-TK and can be radiolabelled for noninvasive imaging.
Wild-type (nontransduced) RG2 cells were studied as a reference control. […] The cells were dislodged from the Petri dishes with a soft scraper, poured into 15 ml conical tubes, centrifuged and the medium aspirated. The tubes were cut to facilitate removing cells; they were blotted, placed in pre-weighed vials, weighed and prepared for counting. Samples were assayed for ^3 H- and ^14 C-radioactivity using a Packard B1600 TriCarb beta spectrometer using dual-channel and external standard splash and quench correction techniques. The medium was also counted before and following incubation. The data was expressed as a harvested cell-to-medium concentration ratio (dpm/g cells.div.dpm/ml medium).
Data analysis. […] These two related measures are useful to evaluate the intensity of the images (e.g., high "sensitivity") and the ability to differentiate between HSV1-TK and endogenous-TK in the images (e.g., high "selectivity"). The "selectivity" measure is not interpreted as a relative sensitivity (i.e., a value of 1 indicating equal sensitivity) of the substrate to HSV1-TK vs. endogenous-TK. […] They are intended for the direct comparison of substrates only.

HSV1-TK, sequence (P0DTH5 whole entry): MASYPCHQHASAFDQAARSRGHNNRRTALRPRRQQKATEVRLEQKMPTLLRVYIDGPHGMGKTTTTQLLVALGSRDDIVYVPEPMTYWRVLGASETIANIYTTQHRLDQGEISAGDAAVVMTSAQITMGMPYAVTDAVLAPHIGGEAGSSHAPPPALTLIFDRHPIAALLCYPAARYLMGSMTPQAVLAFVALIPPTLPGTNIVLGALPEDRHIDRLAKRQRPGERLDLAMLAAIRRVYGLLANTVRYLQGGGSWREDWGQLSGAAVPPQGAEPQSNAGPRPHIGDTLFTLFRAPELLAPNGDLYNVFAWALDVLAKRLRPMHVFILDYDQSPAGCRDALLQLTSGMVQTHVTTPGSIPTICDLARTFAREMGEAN

O=c1[nH]c(=O)n([C@@H]2O[C@H](CO)[C@@H](O)[C@@H]2F)cc1I [FIAU, 2'-fluoro-5-iodo-1-β-D-arabinofuranosyl-uracil]
organ damage in clinical trial ([1]; human, in vivo): severe liver and pancreatic damage | dose-limiting toxicity ([1]; pharmacologic doses): dose-limiting gastrointestinal, hematologic and neurotoxicity | difference in radioactivity localized to transduced compared to non-transduced tumor (RG2TK+ and RG2 tumors [2]; 4 hours after tracer, RG2TK#16 vs RG2 i.c., non-rinsed autoradiogram): only a small difference | Sensitivity* Δ(substrate % dose/g)/Δ(HSV1TK mRNA/S28 RNA IOD) (RG2TK+ and RG2 tumors [2]; RG2TK#16/RG2 i.c. tumors): 0.0058 | Sensitivity* Δ(substrate % dose/g)/Δ(HSV1TK mRNA/S28 RNA IOD) (RG2TK+ and RG2 tumors [2]; RG2TK+/RG2 i.c. tumors): 0.0039 | peak activity (RG2TK+ and RG2 tumors [2]; i.c. RG2TK+ tumor, 24 h): 0.43 % dose/g | tissue uptake at 24 h ([3]; brain, 24 h, level of detection on the autoradiograms, read-out: adjacent brain activity): < 0.005 %ID/g | tissue uptake at 24 h ([3]; i.c. rg2tk+ tumor, i.c. RG2TK+ tumor, 24 h, read-out: peak activity): 0.43 %ID/g | tissue uptake at 24 h ([3]; intracerebral tumor, i.c. RG2TK+ tumor, 24 h after 50 uCi 2-[14C]-FIAU i.v., read-out: mean activity): 0.18 ± 0.14 %ID/g | PS* ([4]; calculated from measured log P and MW: log(PS)=5.2+log(P·Dm)): 0.59 | PS+ ([4]; calculated from published log P and MW: log(PS)=5.2+log(P·Dm)): 0.59 | Sensitivity* (uptake in RG2TK+ tumor - uptake in RG2 tumor)/(HSV1TK mRNA/S28 RNA IOD in RG2TK+ cells) (RG2TK+ and RG2 tumors [5]; RG2TK+/RG2 i.c. tumors): 0.0025 | Sensitivity* (uptake in RG2TK+ tumor - uptake in RG2 tumor)/(HSV1TK mRNA/S28 RNA IOD in RG2TK+ cells) (RG2TK+ and RG2 tumors [5]; RG2TK+/RG2 s.c. tumors): 0.0150 | Sensitivity* Δ(substrate/TdR)/Δ(HSV1TK mRNA/S28 RNA IOD) (HSV1-TK; Data from FIG. 5): 0.0090 | Sensitivity* Δ(substrate/TdR)/Δ(HSV1TK mRNA/S28 RNA IOD) (HSV1-TK; Data from FIG. 7B (different RG2TK cell lines)): 0.0086
